Test results from publication PMC5218480 (PLoS ONE, 2017).

Tested on: MV-4-11 cells
Assay: Gene expression microarray analysis (Affymetrix PrimeView) and GSEA
Format: cell-based, human
Parameters: RFU PODN (11730768_x_at) / Fold change /veh PODN (11730768_x_at) / RFU LINC00158 (11744669_a_at) / Fold change /veh LINC00158 (11744669_a_at) / RFU DUSP10 (11751237_a_at) / Fold change /veh DUSP10 (11751237_a_at) / RFU ID3 (11757404_x_at) / Fold change /veh ID3 (11757404_x_at) / RFU PLEKHG5 (11737974_s_at) / Fold change /veh PLEKHG5 (11737974_s_at) / RFU LRRC4B (11730491_at) / Fold change /veh LRRC4B (11730491_at) / RFU GIMAP4 (11747438_a_at) / Fold change /veh GIMAP4 (11747438_a_at) / RFU KRT8 (11758183_x_at) / Fold change /veh KRT8 (11758183_x_at) / RFU CNN1 (11734310_a_at) / Fold change /veh CNN1 (11734310_a_at) / RFU VPS37D (11726825_at) / Fold change /veh VPS37D (11726825_at) / RFU C10orf10 (11716522_x_at) / Fold change /veh C10orf10 (11716522_x_at) / RFU KIR2DL2 /// KIR2DL4 /// KIR2DL5A /// KIR2DL5B /// KIR2DS1 /// KIR2DS2 /// KIR2DS3 /// KIR2DS4 /// KIR3DL3 /// KIR3DL3 /// KIR3DS1 (11738374_at) / Fold change /veh KIR2DL2 /// KIR2DL4 /// KIR2DL5A /// KIR2DL5B /// KIR2DS1 /// KIR2DS2 /// KIR2DS3 /// KIR2DS4 /// KIR3DL3 /// KIR3DL3 /// KIR3DS1 (11738374_at) / RFU C1QL1 (11718748_at) / Fold change /veh C1QL1 (11718748_at) / RFU TMPRSS4 (11747572_a_at) / Fold change /veh TMPRSS4 (11747572_a_at) / RFU HAMP (11756126_x_at) / Fold change /veh HAMP (11756126_x_at) / RFU RNFT2 (11725882_a_at) / Fold change /veh RNFT2 (11725882_a_at) / RFU NR4A2 (11747474_a_at) / Fold change /veh NR4A2 (11747474_a_at) / RFU ABCC12 (11746883_a_at) / Fold change /veh ABCC12 (11746883_a_at) / RFU TMEM136 (11760407_x_at) / Fold change /veh TMEM136 (11760407_x_at) / RFU CLDN22 /// WWC2 (11732394_at) / Fold change /veh CLDN22 /// WWC2 (11732394_at) / RFU HLA-DPB1 (11760878_x_at) / Fold change /veh HLA-DPB1 (11760878_x_at) / RFU SPINT1 (11716480_a_at) / Fold change /veh SPINT1 (11716480_a_at) / RFU GAP43 (11754022_s_at) / Fold change /veh GAP43 (11754022_s_at) / RFU A4GNT (11735810_at) / Fold change /veh A4GNT (11735810_at) / RFU PRB3 (11715151_x_at) / Fold change /veh PRB3 (11715151_x_at) / RFU TUBB4B (11761932_at) / Fold change /veh TUBB4B (11761932_at) / RFU CAPN14 (11732068_a_at) / Fold change /veh CAPN14 (11732068_a_at) / RFU TMCC2 (11721928_a_at) / Fold change /veh TMCC2 (11721928_a_at) / RFU IRGQ (11745062_a_at) / Fold change /veh IRGQ (11745062_a_at) / RFU FAM174B (11720279_a_at) / Fold change /veh FAM174B (11720279_a_at) / RFU TMPRSS4 (11748680_a_at) / Fold change /veh TMPRSS4 (11748680_a_at) / RFU FAM212B (11763350_a_at) / Fold change /veh FAM212B (11763350_a_at) / RFU PLEKHG5 (11743358_a_at) / Fold change /veh PLEKHG5 (11743358_a_at) / RFU ZSCAN30 (11745921_a_at) / Fold change /veh ZSCAN30 (11745921_a_at) / RFU CMKLR1 (11741424_a_at) / Fold change /veh CMKLR1 (11741424_a_at) / RFU LOC101060620 /// MAPK8IP1 (11723275_at) / Fold change /veh LOC101060620 /// MAPK8IP1 (11723275_at) / RFU SPTSSB (11747773_x_at) / Fold change /veh SPTSSB (11747773_x_at) / RFU PRSS12 (11739890_at) / Fold change /veh PRSS12 (11739890_at) / RFU BIN1 (11741810_x_at) / Fold change /veh BIN1 (11741810_x_at) / RFU WNT11 (11732464_a_at) / Fold change /veh WNT11 (11732464_a_at) / RFU C10orf10 (11716521_a_at) / Fold change /veh C10orf10 (11716521_a_at) / RFU C5orf56 (11738089_at) / Fold change /veh C5orf56 (11738089_at) / RFU CYB561 (11721691_x_at) / Fold change /veh CYB561 (11721691_x_at) / RFU ANKRD19P (11752326_a_at) / Fold change /veh ANKRD19P (11752326_a_at) / RFU OR2T12 /// OR2T33 /// OR2T8 (11738714_s_at) / Fold change /veh OR2T12 /// OR2T33 /// OR2T8 (11738714_s_at) / RFU VCAN (11748164_a_at) / Fold change /veh VCAN (11748164_a_at) / RFU JSRP1 (11732532_at) / Fold change /veh JSRP1 (11732532_at) / RFU KRTAP10-11 (11738290_x_at) / Fold change /veh KRTAP10-11 (11738290_x_at) / RFU MYO3A (11730013_a_at) / Fold change /veh MYO3A (11730013_a_at) / RFU EBF3 (11725865_a_at) / Fold change /veh EBF3 (11725865_a_at) / RFU CAMK2N1 (11719241_x_at) / Fold change /veh CAMK2N1 (11719241_x_at) / RFU C5orf56 (11738088_a_at) / Fold change /veh C5orf56 (11738088_a_at) / RFU OLFML3 (11715873_a_at) / Fold change /veh OLFML3 (11715873_a_at) / RFU LOC100653217 /// NTM (11731650_a_at) / Fold change /veh LOC100653217 /// NTM (11731650_a_at) / RFU MAPK11 (11762145_a_at) / Fold change /veh MAPK11 (11762145_a_at) / RFU FIZ1 (11724087_x_at) / Fold change /veh FIZ1 (11724087_x_at) / RFU OASL (11726364_x_at) / Fold change /veh OASL (11726364_x_at) / RFU SOX15 (11748057_x_at) / Fold change /veh SOX15 (11748057_x_at) / RFU CD79A (11719716_a_at) / Fold change /veh CD79A (11719716_a_at) / RFU HIST1H1D (11736915_at) / Fold change /veh HIST1H1D (11736915_at) / RFU CASKIN2 (11723855_a_at) / Fold change /veh CASKIN2 (11723855_a_at) / RFU LOC730098 (11760151_x_at) / Fold change /veh LOC730098 (11760151_x_at) / RFU OR4N2 (11742367_at) / Fold change /veh OR4N2 (11742367_at) / RFU PRRT2 (11749266_a_at) / Fold change /veh PRRT2 (11749266_a_at) / RFU SNX32 (11753110_a_at) / Fold change /veh SNX32 (11753110_a_at) / RFU CDHR5 (11726645_a_at) / Fold change /veh CDHR5 (11726645_a_at) / RFU RCAN1 (11760418_a_at) / Fold change /veh RCAN1 (11760418_a_at) / RFU FAM167A (11723789_a_at) / Fold change /veh FAM167A (11723789_a_at) / RFU FAM26E (11764081_at) / Fold change /veh FAM26E (11764081_at) / RFU ISYNA1 (11749810_s_at) / Fold change /veh ISYNA1 (11749810_s_at) / RFU ACY1 (11761880_at) / Fold change /veh ACY1 (11761880_at) / RFU 11764098_at / Fold change /veh 11764098_at / RFU SAMD14 (11745864_x_at) / Fold change /veh SAMD14 (11745864_x_at) / RFU NPB (11741838_a_at) / Fold change /veh NPB (11741838_a_at) / RFU TMPRSS6 (11731388_a_at) / Fold change /veh TMPRSS6 (11731388_a_at) / RFU KRTAP10-2 (11738614_at) / Fold change /veh KRTAP10-2 (11738614_at) / RFU ARHGAP8 /// PRR5-ARHGAP8 (11727945_x_at) / Fold change /veh ARHGAP8 /// PRR5-ARHGAP8 (11727945_x_at) / RFU KRTAP5-7 /// NADSYN1 (11734609_at) / Fold change /veh KRTAP5-7 /// NADSYN1 (11734609_at) / RFU RASL12 (11751679_a_at) / Fold change /veh RASL12 (11751679_a_at) / RFU CDKN2B (11736163_a_at) / Fold change /veh CDKN2B (11736163_a_at) / RFU PRF1 (11729649_at) / Fold change /veh PRF1 (11729649_at) / RFU, ZNF638 /// ZNF638-IT1 / Fold change vs veh, ZNF638 /// ZNF638-IT1 / RFU, PANK3 / Fold change vs veh, PANK3 / RFU, SH3YL1 / Fold change vs veh, SH3YL1 / RFU, ZEB2 / Fold change vs veh, ZEB2 / RFU, NRIP1 / Fold change vs veh, NRIP1 / RFU, PTTG1IP / Fold change vs veh, PTTG1IP / RFU, CAPN2 / Fold change vs veh, CAPN2 / RFU, MED14 / Fold change vs veh, MED14 / RFU, SNORA58 / Fold change vs veh, SNORA58 / RFU, C1orf63 / Fold change vs veh, C1orf63 / RFU, LRRFIP1 / Fold change vs veh, LRRFIP1 / RFU, NDUFAF7 / Fold change vs veh, NDUFAF7 / RFU, SLC12A2 / Fold change vs veh, SLC12A2 / RFU, IBTK / Fold change vs veh, IBTK / RFU, ESF1 / Fold change vs veh, ESF1 / Fold change vs veh, TMEM50B / RFU, TAOK1 / Fold change vs veh, TAOK1 / RFU, ACBD3 / Fold change vs veh, ACBD3 / RFU, TMA16 / Fold change vs veh, TMA16 / RFU, RWDD3 / Fold change vs veh, RWDD3 / RFU, BCAT1 / Fold change vs veh, BCAT1 / RFU, EDEM3 / Fold change vs veh, EDEM3 / RFU, TMEM33 / Fold change vs veh, TMEM33 / RFU, WDR75 / Fold change vs veh, WDR75 / RFU, AHCTF1 / Fold change vs veh, AHCTF1 / RFU, TFRC / Fold change vs veh, TFRC / RFU, ZDHHC17 / Fold change vs veh, ZDHHC17 / RFU, NOM1 / Fold change vs veh, NOM1 / RFU, ARL8B / Fold change vs veh, ARL8B / RFU, ZBTB11 / Fold change vs veh, ZBTB11 / RFU, TAMM41 / Fold change vs veh, TAMM41 / RFU, KIAA1704 /// LOC100996395 / Fold change vs veh, KIAA1704 /// LOC100996395 / RFU, ING1 / Fold change vs veh, ING1 / RFU, TRMT61B / Fold change vs veh, TRMT61B / RFU, FUBP3 / Fold change vs veh, FUBP3 / RFU, TP53 / Fold change vs veh, TP53 / RFU, TNKS2 / Fold change vs veh, TNKS2 / RFU, ZFP14 / Fold change vs veh, ZFP14 / RFU, ACTR2 / Fold change vs veh, ACTR2 / RFU, PPP3R1 / Fold change vs veh, PPP3R1 / RFU, PIK3R1 / Fold change vs veh, PIK3R1 / RFU, HNRNPA1 / Fold change vs veh, HNRNPA1 / RFU, RNF170 / Fold change vs veh, RNF170 / RFU, ZNF28 / Fold change vs veh, ZNF28 / RFU, RNGTT / Fold change vs veh, RNGTT / RFU, OGT / Fold change vs veh, OGT / RFU, BRD1 / Fold change vs veh, BRD1 / RFU, MARS / Fold change vs veh, MARS / RFU, ZNF655 / Fold change vs veh, ZNF655 / RFU, FAHD1 / Fold change vs veh, FAHD1 / RFU, BDP1 / Fold change vs veh, BDP1 / RFU, LRRCC1 / Fold change vs veh, LRRCC1 / RFU, ARID1A / Fold change vs veh, ARID1A / RFU, ZNF146 / Fold change vs veh, ZNF146 / RFU, ZNF330 / Fold change vs veh, ZNF330 / RFU, GPN3 / Fold change vs veh, GPN3 / RFU, C9orf123 / Fold change vs veh, C9orf123 / RFU, N4BP2L2 / Fold change vs veh, N4BP2L2 / RFU, ARFIP1 / Fold change vs veh, ARFIP1 / RFU, FAM179B / Fold change vs veh, FAM179B / RFU, BCL10 / Fold change vs veh, BCL10 / RFU, UHRF1BP1L / Fold change vs veh, UHRF1BP1L / RFU, BET1 / Fold change vs veh, BET1 / RFU, CNOT2 / Fold change vs veh, CNOT2 / RFU, ZNF268 / Fold change vs veh, ZNF268 / Fold change vs veh, ZNF507 / RFU, DGCR2 / Fold change vs veh, DGCR2 / RFU, WDSUB1 / Fold change vs veh, WDSUB1 / Fold change vs veh, HSP90B1 /// MIR3652 / RFU, ADSS / Fold change vs veh, ADSS / RFU, GK / Fold change vs veh, GK / RFU, ZNF148 / Fold change vs veh, ZNF148 / RFU, TAF9 / Fold change vs veh, TAF9 / RFU, SLC1A5 / Fold change vs veh, SLC1A5 / RFU, SLMO2 / Fold change vs veh, SLMO2 / RFU, ABCC4 / Fold change vs veh, ABCC4 / RFU, LOC101060439 /// RAP1B / Fold change vs veh, LOC101060439 /// RAP1B / RFU, RFX7 / Fold change vs veh, RFX7 / RFU, GTPBP10 / Fold change vs veh, GTPBP10 / RFU, CNEP1R1 / Fold change vs veh, CNEP1R1 / RFU, BIVM-ERCC5 /// ERCC5 / Fold change vs veh, BIVM-ERCC5 /// ERCC5 / RFU, ILF3 / Fold change vs veh, ILF3 / RFU 11762660_at / Fold change /veh 11762660_at / RFU VCAN (11757783_s_at) / Fold change /veh VCAN (11757783_s_at) / RFU DDX43 (11728927_at) / Fold change /veh DDX43 (11728927_at) / RFU KRT8 (11758188_x_at) / Fold change /veh KRT8 (11758188_x_at) / RFU NKD1 (11759106_at) / Fold change /veh NKD1 (11759106_at) / RFU SRD5A1 (11742802_a_at) / Fold change /veh SRD5A1 (11742802_a_at) / RFU TPSAB1 /// TPSB2 (11721975_s_at) / Fold change /veh TPSAB1 /// TPSB2 (11721975_s_at) / RFU GSTM3 (11746129_a_at) / Fold change /veh GSTM3 (11746129_a_at) / RFU IL23R (11737362_x_at) / Fold change /veh IL23R (11737362_x_at) / RFU TMEM51 (11727254_a_at) / Fold change /veh TMEM51 (11727254_a_at) / RFU PIWIL2 (11732686_x_at) / Fold change /veh PIWIL2 (11732686_x_at) / RFU ORM1 (11744905_x_at) / Fold change /veh ORM1 (11744905_x_at) / RFU CCDC152 (11743942_at) / Fold change /veh CCDC152 (11743942_at) / RFU ECM1 (11717891_a_at) / Fold change /veh ECM1 (11717891_a_at) / RFU IL23R (11748794_a_at) / Fold change /veh IL23R (11748794_a_at) / RFU TNFAIP8L3 (11732012_x_at) / Fold change /veh TNFAIP8L3 (11732012_x_at) / RFU MBOAT4 (11741988_at) / Fold change /veh MBOAT4 (11741988_at) / RFU 11764193_at / Fold change /veh 11764193_at / RFU TMEM53 (11763286_at) / Fold change /veh TMEM53 (11763286_at) / RFU MAGEB2 (11727129_at) / Fold change /veh MAGEB2 (11727129_at) / RFU TMEM200A (11744735_a_at) / Fold change /veh TMEM200A (11744735_a_at) / RFU CCDC152 (11751479_a_at) / Fold change /veh CCDC152 (11751479_a_at) / RFU FAM211A (11726209_a_at) / Fold change /veh FAM211A (11726209_a_at) / RFU RGS16 (11746705_a_at) / Fold change /veh RGS16 (11746705_a_at) / RFU VCAN (11755009_s_at) / Fold change /veh VCAN (11755009_s_at) / RFU RHOB (11743442_s_at) / Fold change /veh RHOB (11743442_s_at) / RFU RGS16 (11720943_a_at) / Fold change /veh RGS16 (11720943_a_at) / RFU RGS16 (11720944_at) / Fold change /veh RGS16 (11720944_at) / RFU, VPS4B / Fold change vs veh, VPS4B / RFU, CREB1 / Fold change vs veh, CREB1 / RFU, DNAJC13 / Fold change vs veh, DNAJC13 / RFU, GNAQ / Fold change vs veh, GNAQ / RFU, CDK5R1 / Fold change vs veh, CDK5R1 / RFU, ZRANB3 / Fold change vs veh, ZRANB3 / RFU, CUL4A / Fold change vs veh, CUL4A / RFU, CCNY / Fold change vs veh, CCNY / RFU, UFL1 / Fold change vs veh, UFL1 / RFU, COG3 / Fold change vs veh, COG3 / RFU, DIAPH2 / Fold change vs veh, DIAPH2 / RFU, SKA2 / Fold change vs veh, SKA2 / RFU, AFF3 / Fold change vs veh, AFF3 / RFU, LMF1 / Fold change vs veh, LMF1 / RFU, IPO11 / Fold change vs veh, IPO11 / RFU, DFFB / Fold change vs veh, DFFB / RFU, FOXP1 / Fold change vs veh, FOXP1 / RFU, CARD8 / Fold change vs veh, CARD8 / RFU, STRN3 / Fold change vs veh, STRN3 / RFU, ADK / Fold change vs veh, ADK / RFU, RASSF2 / Fold change vs veh, RASSF2 / RFU, WIPF1 / Fold change vs veh, WIPF1 / RFU, LARP1B / Fold change vs veh, LARP1B / RFU, RASA1 / Fold change vs veh, RASA1 / RFU, RB1 / Fold change vs veh, RB1 / RFU, PPFIA1 / Fold change vs veh, PPFIA1 / RFU, MAT2A / Fold change vs veh, MAT2A / RFU, CCT5 / Fold change vs veh, CCT5 / RFU, WDR92 / Fold change vs veh, WDR92 / RFU, CUX1 / Fold change vs veh, CUX1 / RFU, TTC7A / Fold change vs veh, TTC7A / RFU, TMEM135 / Fold change vs veh, TMEM135 / RFU, DEPTOR / Fold change vs veh, DEPTOR / RFU, CPM / Fold change vs veh, CPM / RFU, DNAJB6 / Fold change vs veh, DNAJB6 / RFU, CACNA2D3 / Fold change vs veh, CACNA2D3 / RFU, DTX4 / Fold change vs veh, DTX4 / RFU, TFCP2 / Fold change vs veh, TFCP2 / RFU, GMCL1 /// GMCL1P1 / Fold change vs veh, GMCL1 /// GMCL1P1 / RFU, AEBP2 / Fold change vs veh, AEBP2 / RFU, SNHG1 /// SNORD22 /// SNORD25 /// SNORD26 /// SNORD27 /// SNORD28 /// SNORD29 /// SNORD31 / Fold change vs veh, SNHG1 /// SNORD22 /// SNORD25 /// SNORD26 /// SNORD27 /// SNORD28 /// SNORD29 /// SNORD31 / Fold change (Aza/veh), C12orf56 (ProbeSet 11735607_a_at) / Fold change (ACY-1035/veh), C12orf56 (ProbeSet 11735607_a_at) / Fold change (Aza/veh), FGFR1OP (ProbeSet 11751329_s_at) / Fold change (ACY-1035/veh), FGFR1OP (ProbeSet 11751329_s_at) / Fold change (Aza/veh), VPS36 (ProbeSet 11739960_a_at) / Fold change (ACY-1035/veh), VPS36 (ProbeSet 11739960_a_at) / RFU SYPL1 (11715823_x_at) / Fold change /veh SYPL1 (11715823_x_at) / RFU IGFBP7 (11715501_s_at) / Fold change /veh IGFBP7 (11715501_s_at) / RFU REEP3 (11722064_at) / Fold change /veh REEP3 (11722064_at) / RFU IGLL1 (11728026_x_at) / Fold change /veh IGLL1 (11728026_x_at): dose or concentration left out as unconfirmed
Settings: ProbeSet 11732370_a_at; LIST D

With `Nc1ccc(-c2cccs2)cc1NC(=O)c1ccc2c(c1)cc(C1CC1)n2CCN1CCOCC1` [ACY-1035] the “Fold change vs veh, CUX1” value was 0.84.
